Results from US5464826A, “Method of treating tumors in mammals with 2',2'-difluoronucleosides” (Eli Lilly and Company, priority 1994, dated 1995).
Values after ≈ are worked out from the molar mass of the structure shown. Read-outs that look alike come from different tables or passages of the source.

Legend:
[1] = test system: human leukemic cells (CCRF-CEM cell line); experiment: Cytotoxicity Screen (growth inhibition); type: cell-based; conditions: for IC50: Homo sapiens, read-out: IC50 (concentration giving 50% growth inhibition)
From the text: The compounds represented by formula I employed in the present invention are cytostatic in that they inhibit the growth of human leukemic cells (CCRF-CEM cell line). […] T1 TABLE 1-Cytotoxicity Screen? -Compound Name?

[2] = test system: L1210V lymphocytic leukemia; experiment: L1210V Lymphocytic Leukemia Tumor System; type: in vivo, mice; conditions: Experiment 1, IP; for Indefinite Survivors: 45 day survivors; for Toxic Deaths: deaths/mice in group
Description: The study testing the efficacy of these compounds against L1210V leukemia was initiated by an IP inoculation of 1×10^6 cells. Treatment was begun 24 hours after inoculation. The response to therapy was determined by comparing the mean life span of the ten treated animals to that of the ten control animals; prolongation of life in the treated animals beyond that of controls is expressed as a percentage. In the Table, column 1 gives the example number of the compound tested; column 2, the experiment number; column 3, the dose level of the compound in mg/kg; column 4, the route of administration; column 5, the dosage schedule, that is, the days on which the compound was administered to the mice; column 6, the average increase in life span of the treated mice as compared to the control mice; column 7, the toxic deaths over the number of mice in each group; and column 8, the indefinite survivors, that is, the number of 45 day survivors in each group.

[3] = test system: X5563 plasma cell myeloma; experiment: X5563 plasma cell myeloma tumor model; type: in vivo, mice (C3H); conditions: 30.0 mg/kg; IP; Daily for 9 days
From the text: X5563 Myeloma--the tumor is maintained in C3H mice.
(§1) The tumor was removed from passage animals and minced into 1 to 3 mm square fragments using sterile techniques. Tumor pieces were checked for sterility using both Antibiotic Medium 1 and Brain Heart Infusion (Difco; Detroit, Mich.). Recipient mice were shaved and tumor pieces were implanted subcutaneously in the axillary region by trocar. Drug therapy on the appropriate schedule was initiated on the day after tumor implant. The compound was dissolved in saline for all experiments. All animals were weighed at the beginning and end of drug treatment. Food and water were provided ad libitum. On days 10 to 12, two dimensional measurements (width and length) of all tumors were taken using vernier calipers. Tumor weights were calculated from these measurements using the following formula:
Tumor Weight (mg)=Tumor Length (mm)×Tumor Width (mm)^2 /2
For all data, the tumor weight was rounded to the nearest tenth of a gram for analysis. No group is included in the analysis for therapeutic activity in which deaths attributable to drug toxicity exceeded 30 percent of the treated group.
In Table 3 which follows, column 1 gives the example number of the compound tested; column 2 provides the tumor system; column 3, the dose level; column 4, the route administered; column 5, the dosage schedule; column 6, the percent inhibition of the tumor; and column 7, the toxic deaths observed prior to completion of the study.

[4] = test system: 6C3HED, CA755, P1534J, X5563; experiment: additional tumor test systems (summary statement); type: in vivo, mice; conditions: systems include 6C3HED
From the text: These systems include the 6C3HED lymphosarcoma, also known as the Gardner lymphosarcoma (6C3HED); the CA-755 adenocarcinoma (CA755); the P1534J lymphatic leukemia (P1534J); and the X5563 plasma cell myeloma (X5563). Each of these systems is described in detail below.
as §1, with “formula: […]” for “formula:”

1-(2,6-diamino-9H-purin-9-yl)-2-desoxy-2,2-difluororibose
IC50 (concentration giving 50% growth inhibition) [1]: 0.075 µg/mL

1-(6-Amino-9H-purin-9-yl)-2-desoxy-2,2-difluororibose [Example 6]
Percent Increase Life Span ([2]; 100.0 mg/kg, Daily for 9 days): 16%
Indefinite Survivors ([2]; 100.0 mg/kg, Daily for 9 days): 0
Toxic Deaths ([2]; 100.0 mg/kg, Daily for 9 days): 0/7
Percent Increase Life Span ([2]; 200.0 mg/kg, Daily for 9 days): 18%
Indefinite Survivors ([2]; 200.0 mg/kg, Daily for 9 days): 0
Toxic Deaths ([2]; 200.0 mg/kg, Daily for 9 days): 0/7

O=c1[nH]c(=O)c2ncn(C3O[C@H](CO)[C@@H](O)C3(F)F)c2[nH]1 (stereo partly shown) [1-(2,6-dioxo-1H,3H,9H-purin-9-yl)-2-desoxy-2,2-difluororibose]
IC50 [1]: 0.3 µg/mL (≈ 0.986 µM)

Nc1nc2c(ncn2C2O[C@H](CO)[C@@H](O)C2(F)F)c(=O)[nH]1 (stereo partly shown) [1-(2-amino-6-oxo-1H,9H-purin-9-yl)-2-desoxy-2,2-difluororibose]
IC50 [1]: 0.1 µg/mL (≈ 0.33 µM)

O=c1ccn(C2O[C@H](CO)[C@@H](O)C2(F)F)c(=O)[nH]1 (stereo partly shown) [Example 3, 1-(2,4-Dioxo-1H, 3H-pyrimidin-1-yl)-2-desoxy-2,2-difluororibose]
IC50 [1]: 5.4 µg/mL (≈ 20.4 µM)

Cc1cn(C2O[C@H](CO)[C@@H](O)C2(F)F)c(=O)nc1N (stereo partly shown) [Example 4, 1-(4-Amino-5-methyl-2-oxo-1H-pyrimidin-1-yl)-2-desoxy-2,2-difluororibose]
IC50 [1]: 0.3 µg/mL (≈ 1.08 µM)

Nc1ccn(C2O[C@H](CO)[C@H](O)C2(F)F)c(=O)n1 (stereo partly shown) [Example 5, 1-(4-Amino-2-oxo-1H-pyrimidin-1-yl)-2-desoxy-2,2-difluoroxylose]
Percent Increase Life Span ([2]; 30.0 mg/kg, Daily for 10 days): 57%
Indefinite Survivors ([2]; 30.0 mg/kg, Daily for 10 days): 0
Toxic Deaths ([2]; 30.0 mg/kg, Daily for 10 days): 0/10
IC50 ([1]; CCRF-CEM): 0.3 µg/mL (≈ 1.14 µM)
Percent Inhibition of Tumor [3]: 28%
Toxic Deaths [3]: 0/10
activity in additional tumor test systems (in words) [4]: demonstrated activity in additional tumor test systems

Nc1nc(Cl)nc2c1ncn2[C@H]1O[C@H](CO)[C@@H](O)C1(F)F [α-1-(2-chloro-6-amino-9H-purin-9-yl)-2-desoxy-2,2-difluororibose]
IC50 [1]: > 20 µg/mL

Nc1ncnc2c1ncn2[C@H]1O[C@H](CO)[C@@H](O)C1(F)F [α-1-(6-amino-9H-purin-9-yl)-2-desoxy-2,2-difluororibose]
IC50 [1]: 6.9 µg/mL (≈ 24 µM)

Nc1nc(Cl)nc2c1ncn2[C@@H]1O[C@H](CO)[C@@H](O)C1(F)F [β-1-(2-chloro-6-amino-9H-purin-9-yl)-2-desoxy-2,2-difluororibose]
IC50 [1]: 0.4 µg/mL (≈ 1.24 µM)

Nc1ncnc2c1ncn2[C@@H]1O[C@H](CO)[C@@H](O)C1(F)F [β-1-(6-amino-9H-purin-9-yl)-2-desoxy-2,2-difluororibose]
IC50 [1]: 0.5 µg/mL (≈ 1.74 µM)
